Source: publication PMC11997985, “Synthesis and In Vitro Profiling of Psilocin Derivatives: Improved Stability and Synthetic Properties” (Journal of Medicinal Chemistry, 2025)
Values joined by “and” are separate entries in the source; they are usually repeats but may differ in a detail not shown here. Identical values can stand only once. Marks after values point to notes of the source that are not given here.

Assays:
[1] = Peak area in microsome suspension compared with compounds in solution; assay type: in vitro ADME, human; conditions: peak area 15 seconds after addition of NADPH versus same amount (125 nM) in H2O/EtOH
Method: (§1) were taken at three timepoints, and the degradation was compared to determine if it was dependent on NADPH. Compound 4k […]
(§2) without the addition of NADPH. […]
(§3) microsomes that need to be activated by a co -factor.
(§4) Table S5 Percent of peak area found in microsome suspension 15 seconds after the addition of NADPH in comparison with the same amount dissolved in H2O/EtOH
(§5) No. Area at 0.25 min. in Area in solution % found in microsomes/NADPH (125 nM) microsome
(§6) Comparison with compounds in solution. A comparison was made between the peak area of the compounds in solution with that obtained in the microsome suspension directly after the addition of NADPH (about 0.25 minutes) (Table S5). Before the addition of NADPH, the compounds are equilibrated in the microsome suspension for approximately five minutes. All compounds were prepared in solution by diluting a portion of the DMSO solutions with H2O/EtOH (75:25) to 125 nM (the final concentration of compounds for analysis in the microsome assay).
(§7) For the compounds where no results from the microsome assay could be reported due to low peak area (4d, 4e, 4f & 5), less than one percent of the expected peak area as compared with the area in solution was detected. […]
(§8) degrade rapidly before the addition of the co-factor after five minutes in incubation. For compounds 4g, 4h, 4i & 4j, which were […]
(§9) higher relative peak areas were found. […]
(§10) without NADPH was only found at 15% of the area seen in solution in the microsome suspension.

[2] = Solubility, screen method, phosphate buffer pH 7.4, 1% DMSO; assay type: physicochemical; conditions: phosphate buffer with 1% DMSO; 100 mM phosphate buffer pH 7.4, 1% DMSO; assay range 0.1 to 100 μM
[3] = Metabolic stability in human microsomes; assay type: in vitro ADME; conditions: for Metabolic stability in human microsomes: 37 °C, 0.5 mg/mL protein, 1 μM compound, 1 mM NADPH; for Comment on microsome assay: Table S3
[4] = Stability in simulated stomach acid (0.10 M HCl); conditions: 0.10 M HCl (simulated stomach acid)
[5] = Chemical stability in 1.0 M NaHCO3 and 1.0 M HCl
[6] = Co-factor experiment: microsome suspension with and without NADPH; assay type: in vitro ADME, human; conditions: for Co-factor experiment: degradation with and without addition of NADPH compared; for microsomal CLint: human, human microsome suspension, both with and without the addition of NADPH, read-out: intrinsic clearance
Method: Therefore, additional experiments comparing stability with and without the addition of NADPH cofactor and a very short incubation period were performed (Tables S4 and S5). […] Due to the rapid observed degradation in microsomes, we decided to investigate the stability of five compounds in human plasma, aiming for a broad range of stabilities (Table 2, Table S6). It should be noted that esterase-labile compounds are notoriously difficult to study in microsomal stability studies.[36]
Table S3 Evaluation of metabolic stability in human microsomes
No. Metabolic stability Comment
4k <10/<10 Low retention in chromatography
8 <10/<10 Low retention in chromatography.
Table S4 Results from the modified microsome assay where degradation with and without the addition of NADPH was compared […]
4d Very low peak area for the first time point,
4e Very low peak area for the first time point,
4f Very low peak area for the first time point,
5 Very low peak area for the first time point,
8 No degradation without co -factor […]
metabolism by the microsomes (consisting mainly of cytochrome P450 enzymes) or if it was due to other factors, the compounds (with the exception of 4k) were incubated in the microsome suspension both with and without the addition of NADPH. Samples […]
as §1, §2, §3, §4, §5, §6, §7, §8, §9, §10

porcine liver esterase = test: Stability in FaSSIF supplemented with esterase; conditions: for % prodrug remaining, measured after 1 min: after 1 min at 20 IU/mL; for predicted half-life: at 270 IU/mL; for predicted abs.: calculated remaining prodrug available for GI absorption, predicted level after 5 min at 270 IU/mL (% remaining prodrug); for half-life at 0.292 mM: pig, FaSSIF supplemented with porcine liver esterase (20 IU/mL); for % prodrug remaining, no esterase 30 min: after 30 min with no esterase

Compound: CN(C)CCc1c[nH]c2cccc(OCc3ccccc3)c12 [Compound 3, 4-Benzyloxy-N,N-dimethyltryptamine]
- % found in microsome suspension [1]: 88.5%
- solubility [2]: > 90 µM
- Metabolic stability in human microsomes [3]: 43 μL/min/mg protein and 44 μL/min/mg protein
- half-life at 5 mM [4]: > 167 h
- half-life at 5 mM ([5]; 1.0 M HCl): > 167 h
- half-life at 5 mM ([5]; 1.0 M NaHCO3): > 167 h
- Co-factor experiment [6]: No degradation without co-factor

Compound: CC(=O)Oc1cccc2[nH]cc(CCN(C)C)c12.O=C(O)/C=C/C(=O)O [Compound 4a, 4-acetoxy-N,N-dimethyltryptamine]
- % found in microsome suspension [1]: 0.0%
- % prodrug remaining, measured after 1 min (porcine liver esterase): 47%
- predicted half-life (porcine liver esterase): 4.2 s
- predicted abs. (porcine liver esterase): 6.2 × 10^–21
- half-life at 0.292 mM (porcine liver esterase): 54.6 ± 6 s
- solubility [2]: 77 µM
- Metabolic stability in human microsomes [3]: >200^a μL/min/mg protein and >200 μL/min/mg protein
- Comment on microsome assay [3]: Rapid degradation
- half-life at 5 mM [4]: > 167 h
- half-life at 24 h, 5 mM ([5]; 1.0 M HCl): 5 h
- half-life at 24 h, 5 mM ([5]; 1.0 M NaHCO3): 15 h
- Co-factor experiment [6]: Degradation without co-factor
- microsomal CLint [6]: > 200 µL/min/mg

Compound: CN(C)CCc1c[nH]c2cccc(OP(=O)(O)O)c12 [Compound 8, 4-phosphoryloxy-N,N-dimethyltryptamine, reference compound]
- % found in microsome suspension [1]: 81.5%
- Metabolic stability in human microsomes [3]: <10/<10^b μL/min/mg protein and <10 μL/min/mg protein
- half-life at 5 mM [4]: > 167 h
- half-life at 5 mM ([5]; 1.0 M HCl): > 167 h
- half-life at 24 h, 5 mM ([5]; 1.0 M NaHCO3): 250 h
- Co-factor experiment [6]: No degradation without co-factor

Compound: CCOC(=O)Oc1cccc2[nH]cc(CCN(C)C)c12.O=C(O)/C=C/C(=O)O [Compound 4i]
- % found in microsome suspension [1]: 7.1%
- % prodrug remaining, measured after 1 min (porcine liver esterase): 28%
- % prodrug remaining, no esterase 30 min (porcine liver esterase): 100%
- predicted half-life (porcine liver esterase): 2.4 s
- predicted abs. (porcine liver esterase): 2.6 × 10^–35
- half-life at 0.292 mM (porcine liver esterase): 33.6 ± 7.2 s
- solubility [2]: 88 µM
- Metabolic stability in human microsomes [3]: >200^a μL/min/mg protein and >200 μL/min/mg protein
- Comment on microsome assay [3]: Rapid degradation
- half-life at 5 mM [4]: > 167 h
- half-life at 5 mM ([5]; 1.0 M HCl): > 167 h
- half-life at 24 h, 5 mM ([5]; 1.0 M NaHCO3): 50 h
- Co-factor experiment [6]: Degradation without co-factor
- microsomal CLint [6]: > 200 µL/min/mg

Compound: CN(C)CCc1c[nH]c2cccc(OC(=O)C3CC3)c12.O=C(O)/C=C/C(=O)O [Compound 4g]
- % found in microsome suspension [1]: 58%
- % prodrug remaining, measured after 1 min (porcine liver esterase): 57%
- % prodrug remaining, no esterase 30 min (porcine liver esterase): 100%
- predicted half-life (porcine liver esterase): 5.4 s
- predicted abs. (porcine liver esterase): 1.9 × 10^–15
- half-life at 0.292 mM (porcine liver esterase): 73.2 ± 2.4 s
- solubility [2]: > 90 µM
- Metabolic stability in human microsomes [3]: >200^a μL/min/mg protein and >200 μL/min/mg protein
- Comment on microsome assay [3]: Rapid degradation
- half-life at 5 mM [4]: > 167 h
- half-life at 24 h, 5 mM ([5]; 1.0 M HCl): 100 h
- half-life at 24 h, 5 mM ([5]; 1.0 M NaHCO3): 183 h
- Co-factor experiment [6]: Degradation without co-factor
- microsomal CLint [6]: > 200 µL/min/mg
